Like-named read-outs stand apart in the source and are kept apart here. Square brackets hold non-standard residues; d marks the D form. Peptide text beside a SMILES is read from it. Aib = CC(C)(N)C(=O)O
Tests used:
[1] = system: Normal chow-fed C57BL/6J male mice; test: Effect on fasting glucose and intestinal weight in normal mice; type: in vivo; conditions: for Small intestinal wet weight: 250 nmol/kg s.c. once daily for 4 days, sacrificed 24 hours after final dosing; for Fasting blood glucose: day 0, fasted mice, after a single s.c. injection, 250 nmol/kg
Protocol: Normal chow-fed C57BL/6J male mice were used. The mice were kept in standard housing conditions, light-, temperature-, and humidity-controlled room (12:12 h light-dark cycle, with lights on at 06.00-18.00 h; 20-22° C.; 50-80% relative humidity). Each dosing group consisted of 6 animals. Mice were dosed once daily with 250 nmol/kg with the test compounds or vehicle for 4 days via subcutaneous administration.
On day 0 mice were fasted and blood glucose levels measured after a single s.c. injection with peptides. Animals were sacrificed 24 hours after final dosing on day 3, and small intestinal wet weights were measured.

human GLP-1 receptor = target: T1, human GLP-1 receptor (Homo sapiens, UniProt P43220); test: GLP-1 receptor potency assay (cAMP AlphaScreen, HEK293 cells stably expressing GLP-1R); type: cell-based; conditions: cAMP response, HEK293 cells expressing human GLP-1R; read-out: EC50 GLP-1
T1 construct: expressed in transfected cells
Summary of the method: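 A HEK293 clone stably expressing cloned human GLP-1R (G418-selected) was stimulated with compound. Intracellular cAMP was measured by AlphaScreen. Responses were normalized to positive and vehicle controls, and EC50 and maximal response were fitted by 4-parameter logistic regression.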

human GLP-2 receptor = target: T2, human GLP-2 receptor (Homo sapiens, UniProt O95838, D470N); test: GLP-2 receptor potency assay (cAMP AlphaScreen, HEK293 cells stably expressing GLP-2R); type: cell-based; conditions: cAMP response, HEK293 cells expressing human GLP-2R
T2 sequence (O95838 1-553 D470N): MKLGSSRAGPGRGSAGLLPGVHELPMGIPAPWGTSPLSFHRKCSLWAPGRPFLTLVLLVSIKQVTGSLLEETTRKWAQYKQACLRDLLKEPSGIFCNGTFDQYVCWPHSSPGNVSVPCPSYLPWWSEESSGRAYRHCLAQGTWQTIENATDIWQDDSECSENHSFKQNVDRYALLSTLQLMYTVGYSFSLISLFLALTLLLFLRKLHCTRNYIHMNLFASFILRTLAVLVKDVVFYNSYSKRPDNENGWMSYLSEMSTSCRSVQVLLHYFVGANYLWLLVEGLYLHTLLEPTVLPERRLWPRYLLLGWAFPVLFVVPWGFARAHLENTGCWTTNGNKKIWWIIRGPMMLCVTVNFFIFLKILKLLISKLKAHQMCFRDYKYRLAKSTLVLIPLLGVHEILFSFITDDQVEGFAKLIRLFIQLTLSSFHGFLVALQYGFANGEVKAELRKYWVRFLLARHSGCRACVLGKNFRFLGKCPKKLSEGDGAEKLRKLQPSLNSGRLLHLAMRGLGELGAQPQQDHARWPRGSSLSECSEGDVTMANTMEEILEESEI
Summary of the method: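 HEK293 cells stably expressing human GLP-2R (G418-selected clone); intracellular cAMP measured by AlphaScreen. Responses normalized to positive and vehicle controls; EC50 and maximal response from 4-parameter logistic fit.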

[2] = Solubility assessment by turbidity absorbance at 325 nm; type: physicochemical; conditions: 1 mg/ml peptide
Protocol: A stock solution of the test peptide (2 mg/ml; determined from the weighed amount of peptide) in demineralized water adjusted to pH 2.5 with HCl was prepared, and aliquots were diluted 1:1 in 100 mM acetate buffer (pH 4.0 and pH 5.0), 100 mM histidine buffer (pH 6.0 and pH 7.0) and 100 mM phosphate buffer (pH 6.0, pH 7.0 and pH7.5), respectively, and loaded in a standard flat-bottom, non-sterile 96-well UV Microplate. The absorbance of samples (single samples, n=1) at 280 and 325 nm was measured in an absorbance-based plate reader, which was preheated to ambient temperature (typically 25° C.).

T1 sequence (P43220 24-463): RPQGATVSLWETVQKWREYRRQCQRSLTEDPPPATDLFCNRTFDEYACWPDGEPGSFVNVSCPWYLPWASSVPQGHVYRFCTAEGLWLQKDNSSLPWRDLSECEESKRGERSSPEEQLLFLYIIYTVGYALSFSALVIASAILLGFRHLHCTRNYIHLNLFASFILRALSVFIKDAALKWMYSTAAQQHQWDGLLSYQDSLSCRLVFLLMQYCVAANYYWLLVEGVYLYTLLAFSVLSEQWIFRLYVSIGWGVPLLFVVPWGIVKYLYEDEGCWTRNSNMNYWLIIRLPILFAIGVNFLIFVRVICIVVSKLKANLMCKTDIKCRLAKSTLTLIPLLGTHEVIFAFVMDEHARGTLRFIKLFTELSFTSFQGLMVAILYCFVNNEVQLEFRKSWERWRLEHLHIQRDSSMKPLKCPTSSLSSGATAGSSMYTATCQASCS

SMILES | EC50 (human GLP-1 receptor) | EC50 (human GLP-2 receptor) | solubility ([2]; 100 mM acetate buffer pH 4.0, ambient temperature, read-out: Solubility, Acetate buffer pH 4) | solubility ([2]; 100 mM acetate buffer pH 5.0, ambient temperature, read-out: Solubility, Acetate buffer pH 5) | solubility ([2]; 100 mM histidine buffer pH 6.0, ambient temperature, read-out: Solubility, Histidine buffer pH 6) | solubility ([2]; 100 mM histidine buffer pH 7.0, ambient temperature, read-out: Solubility, Histidine buffer pH 7) | solubility ([2]; 100 mM phosphate buffer pH 6.0, ambient temperature, read-out: Solubility, Phosphate buffer pH 6) | solubility ([2]; 100 mM phosphate buffer pH 7.0, ambient temperature, read-out: Solubility, Phosphate buffer pH 7) | solubility ([2]; 100 mM phosphate buffer pH 7.5, ambient temperature, read-out: Solubility, Phosphate buffer pH 7.5) | Small intestinal wet weight [1] | Fasting blood glucose [1]
CC[C@H](C)[C@H](NC(=O)[C@H](Cc1ccccc1)NC(=O)[C@H](CC(=O)O)NC(=O)[C@H](CCCNC(=N)N)NC(=O)[C@H](C)NC(=O)[C@H](C)NC(=O)[C@H](CCC(N)=O)NC(=O)[C@H](CCC(=O)O)NC(=O)[C@H](CC(=O)O)NC(=O)[C@H](CC(C)C)NC(=O)[C@@H](NC(=O)[C@@H](NC(=O)[C@H](C)NC(=O)[C@H](CC(C)C)NC(=O)[C@H](CCC(=O)O)NC(=O)[C@H](CO)NC(=O)[C@@H](NC(=O)[C@H](Cc1ccccc1)NC(=O)[C@H](CO)NC(=O)CNC(=O)[C@H](CCC(=O)O)NC(=O)C(C)(C)NC(=O)[C@@H](N)Cc1c[nH]cn1)[C@@H](C)O)[C@@H](C)O)[C@@H](C)CC)C(=O)N[C@@H](C)C(=O)N[C@@H](Cc1c[nH]c2ccccc12)C(=O)N[C@@H](CC(C)C)C(=O)N[C@@H](Cc1c[nH]cn1)C(=O)N[C@@H](C)C(=O)N[C@@H](Cc1c[nH]cn1)C(=O)N[C@@H](CCCCN)C(=O)N[C@H](C(=O)N[C@H](C(=O)N[C@@H](CC(=O)O)C(=O)O)[C@@H](C)O)[C@@H](C)CC [Compound 22] (H-H[Aib]EGSFTSELATILDEQAARDFIAWLHAHKITD-OH) | 0.28 nM | 0.042 nM |  |  |  |  |  |  |  | 0.82 g | 6.18 mM
CC[C@H](C)[C@H](NC(=O)[C@H](Cc1ccccc1)NC(=O)[C@H](CC(=O)O)NC(=O)[C@H](CCCNC(=N)N)NC(=O)[C@H](C)NC(=O)[C@H](C)NC(=O)[C@H](CCC(N)=O)NC(=O)[C@H](CCC(=O)O)NC(=O)[C@H](CC(=O)O)NC(=O)[C@H](CC(C)C)NC(=O)[C@@H](NC(=O)[C@@H](NC(=O)[C@H](C)NC(=O)[C@H](CC(C)C)NC(=O)[C@H](CCC(=O)O)NC(=O)[C@H](CO)NC(=O)[C@@H](NC(=O)[C@H](Cc1ccccc1)NC(=O)[C@H](CO)NC(=O)CNC(=O)[C@H](CCC(=O)O)NC(=O)C(C)(C)NC(=O)[C@@H](N)Cc1c[nH]cn1)[C@@H](C)O)[C@@H](C)O)[C@@H](C)CC)C(=O)N[C@@H](C)C(=O)N[C@@H](Cc1c[nH]c2ccccc12)C(=O)N[C@@H](CC(C)C)C(=O)N[C@H](C(=O)N[C@@H](Cc1c[nH]cn1)C(=O)N[C@@H](Cc1c[nH]cn1)C(=O)N[C@@H](CCCCN)C(=O)N[C@H](C(=O)N[C@H](C(=O)N[C@@H](CC(=O)O)C(=O)O)[C@@H](C)O)[C@@H](C)CC)[C@@H](C)CC [Compound 6] (H-H[Aib]EGSFTSELATILDEQAARDFIAWLIHHKITD-OH) | 0.014 nM | 0.047 nM | ≥ 1000 µg/mL | < 1000 µg/mL | < 1000 µg/mL | ≥ 1000 µg/mL | < 1000 µg/mL | ≥ 1000 µg/mL | < 1000 µg/mL |  | 
CC[C@H](C)[C@H](NC(=O)[C@H](Cc1ccccc1)NC(=O)[C@H](CC(=O)O)NC(=O)[C@H](CCCNC(=N)N)NC(=O)[C@H](C)NC(=O)[C@H](C)NC(=O)[C@H](CCC(N)=O)NC(=O)[C@H](CCC(=O)O)NC(=O)[C@H](CC(=O)O)NC(=O)[C@H](CC(C)C)NC(=O)[C@@H](NC(=O)[C@@H](NC(=O)[C@H](C)NC(=O)[C@H](CC(C)C)NC(=O)[C@H](CCC(=O)O)NC(=O)[C@H](CO)NC(=O)[C@@H](NC(=O)[C@H](Cc1ccccc1)NC(=O)[C@@H](NC(=O)CNC(=O)[C@H](CCC(=O)O)NC(=O)C(C)(C)NC(=O)[C@@H](N)Cc1c[nH]cn1)[C@@H](C)O)[C@@H](C)O)[C@@H](C)O)[C@@H](C)CC)C(=O)N[C@@H](C)C(=O)N[C@@H](Cc1c[nH]c2ccccc12)C(=O)N[C@@H](CC(C)C)C(=O)N[C@@H](CCC(N)=O)C(=O)N[C@@H](C)C(=O)N[C@@H](CCC(N)=O)C(=O)N[C@@H](CCCCN)C(=O)N[C@H](C(=O)N[C@H](C(=O)N[C@@H](CC(=O)O)C(=O)O)[C@@H](C)O)[C@@H](C)CC [Compound 26] (H-H[Aib]EGTFTSELATILDEQAARDFIAWLQAQKITD-OH) | 0.013 nM | 0.19 nM |  |  |  |  |  |  |  | 0.78 g | 5.70 mM

Continued, in another order:

EC50 (human GLP-1 receptor) | EC50 (human GLP-2 receptor) | solubility ([2]; 100 mM acetate buffer pH 4.0, ambient temperature, read-out: Solubility, Acetate buffer pH 4) | solubility ([2]; 100 mM acetate buffer pH 5.0, ambient temperature, read-out: Solubility, Acetate buffer pH 5) | solubility ([2]; 100 mM histidine buffer pH 6.0, ambient temperature, read-out: Solubility, Histidine buffer pH 6) | solubility ([2]; 100 mM histidine buffer pH 7.0, ambient temperature, read-out: Solubility, Histidine buffer pH 7) | solubility ([2]; 100 mM phosphate buffer pH 6.0, ambient temperature, read-out: Solubility, Phosphate buffer pH 6) | solubility ([2]; 100 mM phosphate buffer pH 7.0, ambient temperature, read-out: Solubility, Phosphate buffer pH 7) | solubility ([2]; 100 mM phosphate buffer pH 7.5, ambient temperature, read-out: Solubility, Phosphate buffer pH 7.5) | SMILES | Small intestinal wet weight [1] | Fasting blood glucose [1]
0.005 nM | 0.049 nM |  |  |  |  |  |  |  | CC[C@H](C)[C@H](NC(=O)[C@H](CC(C)C)NC(=O)[C@H](Cc1c[nH]c2ccccc12)NC(=O)[C@H](CO)NC(=O)[C@@H](NC(=O)[C@H](Cc1ccccc1)NC(=O)[C@H](CC(=O)O)NC(=O)[C@H](CCCNC(=N)N)NC(=O)[C@H](C)NC(=O)[C@H](C)NC(=O)[C@H](CCC(N)=O)NC(=O)[C@H](CCC(=O)O)NC(=O)[C@H](CC(=O)O)NC(=O)[C@H](CC(C)C)NC(=O)[C@@H](NC(=O)[C@@H](NC(=O)[C@H](C)NC(=O)[C@H](CC(C)C)NC(=O)[C@H](CCC(=O)O)NC(=O)[C@H](CO)NC(=O)[C@@H](NC(=O)[C@H](Cc1ccccc1)NC(=O)[C@@H](NC(=O)CNC(=O)[C@H](CCC(=O)O)NC(=O)C(C)(C)NC(=O)[C@@H](N)Cc1c[nH]cn1)[C@@H](C)O)[C@@H](C)O)[C@@H](C)O)[C@@H](C)CC)[C@@H](C)CC)C(=O)N[C@@H](C)C(=O)N[C@@H](Cc1c[nH]cn1)C(=O)N[C@@H](CCCCN)C(=O)N[C@H](C(=O)N[C@H](C(=O)N[C@@H](CC(=O)O)C(=O)O)[C@@H](C)O)[C@@H](C)CC [Compound 34] (H-H[Aib]EGTFTSELATILDEQAARDFISWLIAHKITD-OH) | 0.93 g | 5.62 mM
0.006 nM | 0.048 nM |  |  |  |  |  |  |  | CC[C@H](C)[C@H](NC(=O)[C@H](Cc1ccccc1)NC(=O)[C@H](CC(=O)O)NC(=O)[C@H](CCCNC(=N)N)NC(=O)[C@H](C)NC(=O)[C@H](C)NC(=O)[C@H](CCC(N)=O)NC(=O)[C@H](CCC(=O)O)NC(=O)[C@H](CC(=O)O)NC(=O)[C@H](CC(C)C)NC(=O)[C@@H](NC(=O)[C@@H](NC(=O)[C@H](C)NC(=O)[C@H](CC(C)C)NC(=O)[C@H](CCC(=O)O)NC(=O)[C@H](CO)NC(=O)[C@@H](NC(=O)[C@H](Cc1ccccc1)NC(=O)[C@@H](NC(=O)CNC(=O)[C@H](CCC(=O)O)NC(=O)C(C)(C)NC(=O)[C@@H](N)Cc1c[nH]cn1)[C@@H](C)O)[C@@H](C)O)[C@@H](C)O)[C@@H](C)CC)C(=O)N[C@@H](CC(N)=O)C(=O)N[C@@H](Cc1c[nH]c2ccccc12)C(=O)N[C@@H](CC(C)C)C(=O)N[C@@H](CCCCN)C(=O)N[C@@H](C)C(=O)N[C@@H](Cc1c[nH]cn1)C(=O)N[C@@H](CCCCN)C(=O)N[C@H](C(=O)N[C@H](C(=O)N[C@@H](CC(=O)O)C(=O)O)[C@@H](C)O)[C@@H](C)CC [Compound 35] (H-H[Aib]EGTFTSELATILDEQAARDFINWLKAHKITD-OH) | 0.81 g | 5.95 mM

Source: patent publication US11130793B2, “GLP-1/GLP-2 dual agonists” (Zealand Pharma A/S, priority 2016, dated 2021)
